Measured values as given in patent US6492416B1, “4,5-diaryl-3(2H)-furanone derivatives as cyclooxygenase-2 inhibitors” (Pacific Corporation, priority 1999, dated 2002).
Values after ≈ are worked out from the molar mass of the structure shown.

Assays:
COX-2 = target: T1, COX-2 (Mus musculus, UniProt Q05769); test: Evaluation of COX-2 activity: PGE2 formation in aspirin-treated, LPS-stimulated mouse peritoneal macrophages; type: cell-based
T1 sequence (Q05769 18-604): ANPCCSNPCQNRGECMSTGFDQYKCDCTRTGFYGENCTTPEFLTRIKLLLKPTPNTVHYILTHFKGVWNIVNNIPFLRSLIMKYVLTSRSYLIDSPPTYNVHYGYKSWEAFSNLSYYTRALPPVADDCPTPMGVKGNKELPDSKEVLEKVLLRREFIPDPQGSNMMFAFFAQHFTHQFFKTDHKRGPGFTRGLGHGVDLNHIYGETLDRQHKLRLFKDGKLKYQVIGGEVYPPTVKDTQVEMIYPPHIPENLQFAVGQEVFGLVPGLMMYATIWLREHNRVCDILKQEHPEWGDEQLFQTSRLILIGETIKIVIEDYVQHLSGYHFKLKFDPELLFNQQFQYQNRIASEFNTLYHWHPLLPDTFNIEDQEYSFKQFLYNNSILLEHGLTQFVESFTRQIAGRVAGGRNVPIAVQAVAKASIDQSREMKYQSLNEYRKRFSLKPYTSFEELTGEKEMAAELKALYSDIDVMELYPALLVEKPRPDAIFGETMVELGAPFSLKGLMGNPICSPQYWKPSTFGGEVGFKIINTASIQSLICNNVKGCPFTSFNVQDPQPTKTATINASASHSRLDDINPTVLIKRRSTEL
Method in brief: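 C57BL/6 peritoneal macrophages treated with 500 μM aspirin to block COX-1, adhered, then stimulated with 10 μg/ml LPS for 16 h at 37 °C to induce COX-2.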

COX-1 = target: T2, COX-1 (Mus musculus, UniProt P22437); test: Evaluation of COX-1 activity: PGE2 formation in mouse peritoneal macrophages without aspirin and LPS treatment; type: cell-based
T2 sequence (P22437 27-602): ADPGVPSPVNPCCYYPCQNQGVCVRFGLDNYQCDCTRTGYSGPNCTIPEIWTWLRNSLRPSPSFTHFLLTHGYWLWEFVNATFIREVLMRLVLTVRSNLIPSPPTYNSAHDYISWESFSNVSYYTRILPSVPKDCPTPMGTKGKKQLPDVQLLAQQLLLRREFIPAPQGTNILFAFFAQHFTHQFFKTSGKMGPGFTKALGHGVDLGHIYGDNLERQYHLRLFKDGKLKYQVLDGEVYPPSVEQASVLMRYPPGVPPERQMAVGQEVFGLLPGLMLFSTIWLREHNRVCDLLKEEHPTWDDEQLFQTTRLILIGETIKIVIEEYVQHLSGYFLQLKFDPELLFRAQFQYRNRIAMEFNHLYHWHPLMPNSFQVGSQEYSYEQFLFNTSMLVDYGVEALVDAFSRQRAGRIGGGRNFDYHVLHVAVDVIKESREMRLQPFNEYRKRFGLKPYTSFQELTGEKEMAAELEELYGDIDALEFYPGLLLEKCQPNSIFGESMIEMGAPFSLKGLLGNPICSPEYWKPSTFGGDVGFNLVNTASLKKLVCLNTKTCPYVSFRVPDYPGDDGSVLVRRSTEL
Method in brief: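 Peritoneal macrophages from C57BL/6 mice, without aspirin or LPS treatment, were plated at 1×10^6 cells/ml and fixed 2 h at 37 °C. Cells were preincubated 10 min, then given 10 μM arachidonic acid plus compound for 10 min; PGE2 was measured by RIA or EIA. IC50 came from 4–5 concentrations.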

[1] = test system: male Sprague-Dawley (SD) rats; test: Carrageenan-induced foot edema in rats (CFE); type: in vivo; conditions: oral dose 3 mg/kg body weight, rat, paw volume 3 hours after Carrageenan
Method: An appropriate amount of a compound of this invention suspended in 1% methylcellulose (MC) solution was administered to male Sprague-Dawley (SD) rats weighing 150˜200 g by oral gavage. The volume of the administered vehicle for a compound of this invention was controlled to be smaller than 10 ml/kg body weight of the animal. One hour later, 0.1 ml of 1% Carrageenan saline solution was directly injected into the right paw of the rats to induce edema in the paw. The paw volumes at 0 hour and at 3 hours after the injection of Carrageenan were measured by using a displacement plethysmometer (Ugo Basile, Italy). The paw volumes were used to calculate % inhibition of CFE by an amount of a compound of this invention according to the following equation.
% Inhibition of CFE=(1−Δtreated/Δcontrol)×100
wherein Δtreated=[paw volume at three hours after the Carrageenan injection−paw volume right after Carrageenan injection] for a drug-administered rat, and Δcontrol=[paw volume at three hours after the Carrageenan injection−paw volume right after Carrageenan injection] for a rat without drug administration.
In order to determine the inhibitory activity of a compound of this invention at a dose, usually 5 to 8 animals were used both for drug-treated group and for control group.

5-{(aminosulfonyl)-3-fluorophenyl}-4-(3,5-difluorophenyl)-2,2-dimethyl-3(2H)-furanone [Example 312]
IC50, μg/ml COX-2 (COX-2): 0.02 µg/mL | IC50, μg/ml COX-1 (COX-1): 100 µg/mL | % Inhibition (CFE) [1]: 31%

Cn1cc(C2=C(c3ccc(S(C)(=O)=O)cc3)OC(C)(C)C2=O)cn1 [Example 20, 2,2-Dimethyl-4-{4-(1-N-methylpyrazolyl)}-5-{4-(methylsulfonyl)phenyl)-3(2H)-furanone]
% Inhibition (CFE) [1]: 36% | melting point: 114 to 115 °C

CC1(C)OC(c2ccc(S(N)(=O)=O)cc2)=C(c2cccc(C(F)(F)F)c2)C1=O [Example 23, 5-{4-(Aminosulfonyl)phenyl}-2,2-dimethyl-4-{3-(trifluoromethyl)phenyl}-3(2H)-furanone]
% Inhibition (CFE) [1]: 33%

CC(C)c1ccc(C2=C(c3ccc(S(C)(=O)=O)cc3)OC(C)(C)C2=O)cc1 [Example 84]
IC50, μg/ml COX-2 (COX-2): 0.03 µg/mL (≈ 0.078 µM) | IC50, μg/ml COX-1 (COX-1): 3 µg/mL (≈ 7.8 µM) | % Inhibition (CFE) [1]: 25% | melting point: 121 to 123 °C

CCSc1ccc(C2=C(c3ccc(S(N)(=O)=O)cc3)OC(C)(C)C2=O)cc1 [Example 146]
IC50, μg/ml COX-2 (COX-2): 0.0014 µg/mL (≈ 0.00347 µM) | IC50, μg/ml COX-1 (COX-1): 0.83 µg/mL (≈ 2.06 µM) | % Inhibition (CFE) [1]: 24% | melting point: 185 °C

CC1(C)OC(c2ccc(S(N)(=O)=O)cc2)=C(c2ccccc2F)C1=O [Example 155]
IC50, μg/ml COX-2 (COX-2): 0.016 µg/mL (≈ 0.0443 µM) | IC50, μg/ml COX-1 (COX-1): 1.8 µg/mL (≈ 4.98 µM) | % Inhibition (CFE) [1]: 35% | melting point: 188 to 189 °C

CC1(C)OC(c2ccc(S(N)(=O)=O)cc2)=C(c2cc(F)ccc2F)C1=O [Example 157]
IC50, μg/ml COX-2 (COX-2): 0.038 µg/mL (≈ 0.1 µM) | IC50, μg/ml COX-1 (COX-1): 5.15 µg/mL (≈ 13.6 µM) | % Inhibition (CFE) [1]: 41% | melting point: 182 to 183 °C

Cn1cc(C2=C(c3ccc(S(N)(=O)=O)cc3)OC(C)(C)C2=O)cn1 [Example 164]
IC50, μg/ml COX-2 (COX-2): 0.03 µg/mL (≈ 0.0864 µM) | IC50, μg/ml COX-1 (COX-1): 100 µg/mL (≈ 288 µM) | % Inhibition (CFE) [1]: 29%

C[S+]([O-])c1ccc(C2=C(c3cccc(F)c3)C(=O)C(C)(C)O2)cc1 (stereo not shown) [Example 176, 2,2-dimethyl-4-(3-fluorophenyl)-5-{4-(methylsulfinyl)phenyl}-3(2H)-furanone]
IC50, μg/ml COX-2 (COX-2): 1 µg/mL (≈ 2.9 µM) | % Inhibition (CFE) [1]: 23% | melting point: 143 to 144 °C

C[S+]([O-])c1ccc(C2=C(c3cc(F)cc(F)c3)C(=O)C(C)(C)O2)cc1 (stereo not shown) [Example 177, 4-(3,5-Difluorophenyl)-2,2-dimethyl-5-{4-(methylsulfinyl)phenyl}-3(2H)-furanone]
IC50, μg/ml COX-2 (COX-2): 5 µg/mL (≈ 13.8 µM) | IC50, μg/ml COX-1 (COX-1): 30 µg/mL (≈ 82.8 µM) | % Inhibition (CFE) [1]: 37% | melting point: 133 to 134 °C

CCC1(C)OC(c2ccc(S(C)(=O)=O)cc2)=C(c2cccc(Cl)c2)C1=O (stereo not shown) [Example 195]
IC50 (COX-2; read-out: IC50, μg/ml COX-2 (converted)): 0.0767 µM | IC50 (COX-1; read-out: IC50, μg/ml COX-1 (converted)): 12.8 µM | % Inhibition (CFE) [1]: 28% | melting point: 94 to 95 °C

Cc1cccc(C2=C(c3ccc(S(C)(=O)=O)cc3)OC3(CCCC3)C2=O)c1 [Example 255]
IC50, μg/ml COX-2 (COX-2): 0.03 µg/mL (≈ 0.0784 µM) | IC50, μg/ml COX-1 (COX-1): 3 µg/mL (≈ 7.84 µM) | % Inhibition (CFE) [1]: 31% | melting point: 142 to 143 °C

CC1(C)OC(c2ccc(S(C)(=O)=O)c(Br)c2)=C(c2cc(F)cc(F)c2)C1=O [Example 345]
IC50, μg/ml COX-2 (COX-2): 0.03 µg/mL (≈ 0.0656 µM) | IC50, μg/ml COX-1 (COX-1): 50 µg/mL (≈ 109 µM) | melting point: 194 to 195 °C

CC1(C)OC(c2ccc(S(N)(=O)=O)c(Br)c2)=C(c2ccccc2)C1=O [Example 351, 5-{4-(Aminosulfonyl)-3-bromophenyl}-2,2-dimethyl-4-phenyl-3(2H)-furanone]
IC50, μg/ml COX-2 (COX-2): 0.9 µg/mL (≈ 2.13 µM) | IC50, μg/ml COX-1 (COX-1): 300 µg/mL (≈ 710 µM) | melting point: 128 to 132 °C

CC1(C)OC(c2ccc(S(C)(=O)=O)c(Cl)c2)=C(c2cccc(Cl)c2)C1=O [Example 358]
IC50, μg/ml COX-2 (COX-2): 0.02 µg/mL (≈ 0.0486 µM) | IC50, μg/ml COX-1 (COX-1): 8 µg/mL (≈ 19.5 µM) | melting point: 188 to 189 °C

CC1(C)OC(c2ccc(S(C)(=O)=O)c(Cl)c2)=C(c2ccc(F)cc2)C1=O [Example 360]
IC50, μg/ml COX-2 (COX-2): 0.009 µg/mL (≈ 0.0228 µM) | IC50, μg/ml COX-1 (COX-1): 3 µg/mL (≈ 7.6 µM) | melting point: 173 to 174 °C

CC1(C)OC(c2ccc(S(C)(=O)=O)c(Cl)c2)=C(c2cc(F)cc(F)c2)C1=O [Example 362]
IC50, μg/ml COX-2 (COX-2): 0.05 µg/mL (≈ 0.121 µM) | IC50, μg/ml COX-1 (COX-1): 300 µg/mL (≈ 727 µM) | melting point: 200 to 201 °C

CC1(C)OC(c2ccc(S(N)(=O)=O)c(Cl)c2)=C(c2ccccc2)C1=O [Example 367, 5-{4-(Aminosulfonyl)-3-chlorophenyl}-2,2-dimethyl-4-phenyl-3(2H)-furanone]
IC50, μg/ml COX-2 (COX-2): 0.06 µg/mL (≈ 0.159 µM) | IC50, μg/ml COX-1 (COX-1): 8 µg/mL (≈ 21.2 µM) | melting point: 193 to 194 °C

CC1(C)OC(c2ccc(S(N)(=O)=O)c(Cl)c2)=C(c2cccc(Cl)c2)C1=O [Example 368]
IC50, μg/ml COX-2 (COX-2): 0.02 µg/mL (≈ 0.0485 µM) | IC50, μg/ml COX-1 (COX-1): 7 µg/mL (≈ 17 µM) | melting point: 162 to 163 °C

CC1(C)OC(c2ccc(S(N)(=O)=O)c(Cl)c2)=C(c2cc(F)cc(F)c2)C1=O [Example 371]
IC50, μg/ml COX-2 (COX-2): 0.02 µg/mL (≈ 0.0483 µM) | IC50, μg/ml COX-1 (COX-1): 200 µg/mL (≈ 483 µM) | melting point: 173 to 174 °C

CNS(=O)(=O)c1ccc(C2=C(c3ccccc3)C(=O)C(C)(C)O2)cc1Cl [Example 372, 5-{3-Chloro-4-(N-methylaminosulfonyl)phenyl}-2,2-dimethyl-4-phenyl-3(2H)-furanone]
IC50, μg/ml COX-2 (COX-2): 0.09 µg/mL (≈ 0.23 µM) | IC50, μg/ml COX-1 (COX-1): 200 µg/mL (≈ 510 µM) | melting point: 136 to 137 °C

Cc1cc(C2=C(c3cccc(F)c3)C(=O)C(C)(C)O2)ccc1S(C)(=O)=O [Example 378, 2,2-Dimethyl-4-(3-fluorophenyl)-5-{3-methyl-4-(methylsulfonyl)phenyl}-3(2H)-furanone]
IC50, μg/ml COX-2 (COX-2): 0.03 µg/mL (≈ 0.0801 µM) | IC50, μg/ml COX-1 (COX-1): 3 µg/mL (≈ 8.01 µM) | melting point: 138 to 139 °C

CC1(C)OC(c2ccc(S(C)(=O)=O)c(F)c2)=C(c2cccc(Cl)c2)C1=S [Example 385, 4-(3-Chlorophenyl)-2,2-dimethyl-5-{3-fluoro-4-(methylsulfonyl)phenyl}-(2H)-furan-3-thione]
IC50, μg/ml COX-2 (COX-2): 0.03 µg/mL (≈ 0.073 µM) | IC50, μg/ml COX-1 (COX-1): 0.05 µg/mL (≈ 0.122 µM) | melting point: 105 to 106 °C
